This is an account of results in patent publication US4564684A, “3-Amino-1-phenyl-2-pyrazolines” (priority 1980, dated 1986).

Where a name gives a salt, the structure may show the parent alone.

For one experiment, the target named is cyclo-oxygenase. In words: Inhibition of cyclo-oxygenase in an enzyme assay according to the method of Blackwell and Flower. The settings on record: Table I, read-out: ED50 for inhibition of cyclo-oxygenase. The format is biochemical.
Another experiment has as its target lipoxygenase. The experiment in a line: Inhibition of lipoxygenase in an enzyme assay according to the method of Blackwell and Flower. The experiment is classed as biochemical. Particulars: Table I, read-out: ED50 for inhibition of lipoxygenase.

As for `CCCCNC1=NN(c2cccc(C(F)(F)F)c2)CC1` [Example 4, 3-butylamino-1-(3-trifluoromethylphenyl)-2-pyrazoline], the IC50 on cyclo-oxygenase and at lipoxygenase was less than 300 nM in each case.
On to `CCNC1=NN(c2cccc(C(F)(F)F)c2)CC1` [Example 2, 3-ethylamino-1-(3-trifluoromethylphenyl)-2-pyrazoline], for which the results for the IC50 at cyclo-oxygenase and at lipoxygenase were roughly 800 nM and roughly 700 nM, respectively.
As to `CNC1=NN(c2cccc(C(F)(F)F)c2)CC1` [Example 1, 3-methylamino-1-(3-trifluoromethylphenyl)-2-pyrazoline], the IC50 on cyclo-oxygenase and on lipoxygenase was roughly 300 nM each time.
As to `FC(F)(F)c1cccc(N2CCC(NCc3ccccc3)=N2)c1` [Example 5, 3-benzylamino-1-(3-trifluoromethylphenyl)-2-pyrazoline hydrochloride], the IC50 on cyclo-oxygenase and at lipoxygenase was roughly 300 nM each time.
Turning to `CCCNC1=NN(c2cccc(C(F)(F)F)c2)CC1` [Example 3, 3-propylamino-1-(3-trifluoromethylphenyl)-2-pyrazoline], the IC50 on cyclo-oxygenase and at lipoxygenase was less than 300 nM in each case.
